Assay results taken from US20090114877A1, “Composition Containing Stability-Improved Chloromethyl Phosphate Derivatve and Process for Producing Same” (Eisai R&D Management Co., Ltd., priority 2005, published 2009).

Assay: Evaluation of storage stability (P-NMR integration values before and after storage)
Protocol: Note that evaluation of storage stability can be carried out by calculation of peak area derived from Compound (6) by high performance liquid chromatography or calculation of integration value by P-NMR measurement before and after storage.
Using the resulting di-tert-butyl chlorophosphate, N-methylmorpholine (NMM) and N,N-diisopropyl ethylamine (iPr2EtN) were added at given concentrations as tertiary amines, prior to concentrating the organic layer containing the phosphate. Then, after storing at a temperature of 40° C. for 3 hours (3 hr) or 6 hours (6 hr), integration values of di-tert-butyl chlorophosphate before and after storage were measured by P-NMR measurements. Note that the storage test at 40° C. was carried out using EYELA ChemStation (temperature accuracy of ±1° C.) as thermoregulated bath.

[1] = 0 mol % NMM added, 40° C., 3 hours storage test, FIG. 2

CC(C)(C)OP(=O)(OCCl)OC(C)(C)C [di-tert-butyl chlorophosphate, di-tert-butyl chloromethyl phosphate]
amount of remaining di-tert-butyl chlorophosphate [1]: 34%
initial di-tert-butyl chlorophosphate decomposed [1]: 66%
amount of di-tert-butyl chlorophosphate remaining (1 mol % NMM added, 40° C., 3 hours storage test): 34%
amount of di-tert-butyl chlorophosphate remaining (2.5 mol % NMM added, 40° C., 3 hours storage test): 88%
decomposition of di-tert-butyl chlorophosphate on storage (5 mol % NMM added, 40° C., 3 hours storage test, FIG. 2): not observed
decomposition of di-tert-butyl chlorophosphate on storage (5 mol % NMM added, stored at 40° C. for 3 hr or 6 hr, FIG. 1): no decomposition
decomposition of di-tert-butyl chlorophosphate on storage (5 mol % iPr2EtN added, stored at 40° C. for 3 hr or 6 hr, FIG. 1): no decomposition
decomposition of di-tert-butyl chlorophosphate on storage (10 mol % NMM added, storage at room temperature for 1.5 days): no decomposition
